Measurements reported in publication PMC12145446, “Development of an AI model for DILI-level prediction using liver organoid brightfield images” (Communications Biology, 2025).
Several values for one entry are separate records, joined by “and”; a condition that tells them apart may be missing. Identical values can stand only once.

Legend:
[1] = test system: HepG2 spheroids; assay: ALB secretion (Human Albumin ELISA) in the DILI toxicity test on HepG2 spheroids; format: cell-based; settings: 10*Cmax, end of Day 3 (72 h), individual replicates n = 3, unit from Fig. S3 legend
Description: (§1) The HepG2 cells were donated by Avatarget Co., Ltd (Suzhou, China). The HepG2 cells were cultured in DMEM (Gibco, 10567014) containing 10% fetal bovine serum (GIBCO, A3161001C), and 1×penicillin/streptomycin (Gibco, 15140148). HepG2 cells (70–80% cell confluency) were washed twice in sterile PBS and then dissociated with 1 mL 0.25% EDTA-Trypsin. Using 3×volume of the complete medium neutralized with reagent above, count cells and ensure 10,000 cells/well. The desired volume of cell suspension was inoculated into the 200 μL/well of ultra-low attachment microplate (Corning, 7007). The plate was centrifuged at 1500 rpm for 10 min and then incubated in an incubator at 37 °C in 5% CO2 for 4 days. The medium is changed every other day at a 1:1 ratio.
(§2) The peak serum concentration (Cmax) can intuitively reflect the actual presence level of a drug in the body’s circulatory system. Therefore, we used 1*Cmax as a reference for the drug dosage to better approximate the in vivo conditions. On this basis, we selected 10*Cmax as the reference concentration, taking into account the coefficient of variation in toxicology (individual variability: tenfold). […] Each drug was tested in triplicate. Plates were dosed with the drug for 72 h in each cycle (referred to as Day 0 through Day 3). […] At the end of day 3, the supernatant from each well was collected to determine ALB secretion, and the spheroids from each well were used for the cell viability assay. The Cmax information of the drugs is shown in Supplementary Table 3.
The culture supernatants were collected and stored at −80 °C until use. The supernatant was assayed with a Human Albumin ELISA Kit (PROTEINTECH, KE00076). Assays were performed according to the manufacturer’s instructions.

[2] = test system: HepG2 spheroids; assay: Cellular viability (ATP, CellTiter-Glo) in the DILI toxicity test on HepG2 spheroids; format: cell-based; settings: 10*Cmax, end of Day 3 (72 h), individual replicates n = 3, unit from Fig. S4 legend
Description: as §1, §2
CellTiter-Glo (CTG, G9681, PROMEGA) reagent and culture medium were added to each well in a 1:1 ratio. The contents were mixed for 2 min to induce cell lysis. The plate was incubated at room temperature for 10 min to stabilize the luminescent signal. Recording of luminescence was carried out with BioTek Microplate Reader Synergy H1 (Vermont, USA).

[3] = cited from earlier work; for Label section / Severity class: DILIrank; for Label section: FDA drug label section; for DILIrank: FDA DILIrank category based on clinical data
[4] = peak serum concentration used as dosing reference; source not given; cited from earlier work

SMILES: O=P1(N(CCCl)CCCl)NCCCO1 (stereo not shown) [Cyclophosphamide]
- ALB inhibition [1]: 90% and 54% and 78%
- ATP inhibition [2]: 36% and 26% and 38%
- Label section [3]: Adverse reactions
- Severity class [3]: 5
- DILIrank [3]: vLess-DILI-Concern
- Cmax [4]: 69 µg/mL

SMILES: C[C@]12CCC(=O)C=C1CC[C@@H]1[C@@H]2[C@@H](O)C[C@@]2(C)[C@H]1CC[C@]2(O)C(=O)CO [Hydrocortisone]
- ALB inhibition [1]: -33% and -30% and -26%
- ATP inhibition [2]: -17% and -20% and -30%
- Label section [3]: No match
- Severity class [3]: 0
- DILIrank [3]: vNo-DILI-Concern
- Cmax [4]: 0.305 µg/mL

SMILES: N[C@@H]1[C@H]2CN(c3nc4c(cc3F)c(=O)c(C(=O)O)cn4-c3ccc(F)cc3F)C[C@@H]12 [Trovafloxacin]
- ALB inhibition [1]: 28% and 76% and 63%
- ATP inhibition [2]: 52% and 58%
- Label section [3]: Withdrawn
- Cmax [4]: 2.09 µg/mL
